Laboratory results taken from patent US5235045A, “Non-azo naphthalimide dyes” (priority 1992, dated 1993).

Assays:
[1] = test system: Herpes simplex virus type 1; test: Effect of DiEd6Br and light on HSV-1 containing 15% fetal calf serum (plaque assay); assay type: cell-based, MacIntyre strain
[2] = test system: Herpes simplex virus type 1; test: Effect of DiEd6Br and light on HSV-1 containing 15% fetal calf serum and human blood platelets (plaque assay); assay type: cell-based, MacIntyre strain; conditions: for log reduction at 0.156 µM / log reduction at 0.625 µM: Human alphaherpesvirus 1, Platelet, light or radiation study, read-out: Log10 Reduction
[3] = test system: Herpes simplex virus type 1; test: Effect of DiEd6Br and light on aqueous suspensions of HSV-1 (plaque assay); assay type: cell-based, MacIntyre strain
[4] = test system: Human immunodeficiency virus (HIV); test: Effect of DiEd6Br and light on HIV (MTT viability of MT-4 cells); assay type: cell-based; conditions: for Optical Density (MTT, MT-4 cells): mean of triplicate, 570 nm

## CCCCCCN1C(=O)c2cccc3c(NCCNC(=O)CCCCC(=O)NCCNc4c(Br)cc5c6c(cccc46)C(=O)N(CCCCCC)C5=O)c(Br)cc(c23)C1=O [Compound XLIV]
[1]; 1.25 μM, 15% fetal calf serum, 20 J/cm2, 420 nm
  PFU/ml: 0 PFU/ml
[1]; 2.5 μM, 15% fetal calf serum, 20 J/cm2, 420 nm
  PFU/ml: 0 PFU/ml
[1]; 5 μM, 15% fetal calf serum, 20 J/cm2, 420 nm
  PFU/ml: 0 PFU/ml
[1]; 10 μM, 15% fetal calf serum, 20 J/cm2, 420 nm
  PFU/ml: 0 PFU/ml
[1]; .078 μM, 15% fetal calf serum, 20 J/cm2, 420 nm
  PFU/ml: 4.2 × 10^4 PFU/ml
[1]; .156 μM, 15% fetal calf serum, 20 J/cm2, 420 nm
  PFU/ml: 4.5 × 10^3 PFU/ml
[1]; .312 μM, 15% fetal calf serum, 20 J/cm2, 420 nm
  PFU/ml: 8.5 × 10^1 PFU/ml
[1]; .625 μM, 15% fetal calf serum, 20 J/cm2, 420 nm
  PFU/ml: 6.0 × 10^1 PFU/ml
[1]; Human alphaherpesvirus 1, light or radiation study, 1.25 μM, 15% fetal calf serum, 20 J/cm2, 420 nm, read-out: Log10 Reduction
  log reduction at 1.25 µM: ≥ 5
[1]; Human alphaherpesvirus 1, light or radiation study, 2.5 μM, 15% fetal calf serum, 20 J/cm2, 420 nm, read-out: Log10 Reduction
  log reduction at 2.5 µM: ≥ 5
[1]; Human alphaherpesvirus 1, light or radiation study, 5 μM, 15% fetal calf serum, 20 J/cm2, 420 nm, read-out: Log10 Reduction
  log reduction at 5 µM: ≥ 5
[1]; Human alphaherpesvirus 1, light or radiation study, 10 μM, 15% fetal calf serum, 20 J/cm2, 420 nm, read-out: Log10 Reduction
  log reduction at 10 µM: ≥ 5
[1]; Human alphaherpesvirus 1, light or radiation study, .078 μM, 15% fetal calf serum, 20 J/cm2, 420 nm, read-out: Log10 Reduction
  log reduction at 0.078 µM: 0.38
[1]; Human alphaherpesvirus 1, light or radiation study, .156 μM, 15% fetal calf serum, 20 J/cm2, 420 nm, read-out: Log10 Reduction
  log reduction at 0.156 µM: 1.35
[1]; Human alphaherpesvirus 1, light or radiation study, .312 μM, 15% fetal calf serum, 20 J/cm2, 420 nm, read-out: Log10 Reduction
  log reduction at 0.312 µM: 3.1
[1]; Human alphaherpesvirus 1, light or radiation study, .625 μM, 15% fetal calf serum, 20 J/cm2, 420 nm, read-out: Log10 Reduction
  log reduction at 0.625 µM: 4
[1]; as low as 0.156 mM, 420 nm, 20 J/cm^2
  kill of HSV-1: > 99.99%
[2]; 0.156 μM, 5 J/cm^2
  PFU/ml: 7.4 × 10^7 PFU/ml
  log reduction at 0.156 µM: 0.01
[2]; 0.156 μM, 10 J/cm^2
  PFU/ml: 6.0 × 10^7 PFU/ml
  log reduction at 0.156 µM: 0.1
[2]; 0.156 μM, 20 J/cm^2
  PFU/ml: 1.5 × 10^7 PFU/ml
  log reduction at 0.156 µM: 0.7
[2]; 0.156 μM, 40 J/cm^2
  PFU/ml: 4.5 × 10^6 PFU/ml
  log reduction at 0.156 µM: 1.22
[2]; 0.156 μM, 60 J/cm^2
  PFU/ml: 1.5 × 10^6 PFU/ml
  log reduction at 0.156 µM: 1.7
[2]; 625 μM (so in the source), 5 J/cm^2
  PFU/ml: 5.0 × 10^5 PFU/ml
[2]; 625 μM (so in the source), 10 J/cm^2
  PFU/ml: 4.5 × 10^5 PFU/ml
[2]; 625 μM (so in the source), 20 J/cm^2
  PFU/ml: 2.0 × 10^4 PFU/ml
[2]; 625 μM (so in the source), 40 J/cm^2
  PFU/ml: 1.1 × 10^3 PFU/ml
[2]; 625 μM (so in the source), 60 J/cm^2
  PFU/ml: None detected
[2]; 5 J/cm^2
  log reduction at 0.625 µM: 2.18
[2]; 10 J/cm^2
  log reduction at 0.625 µM: 2.22
[2]; 20 J/cm^2
  log reduction at 0.625 µM: 3.58
[2]; 40 J/cm^2
  log reduction at 0.625 µM: 4.84
[2]; 60 J/cm^2
  log reduction at 0.625 µM: 7
[2]; as low as 0.625 mM, 60 J/cm^2, 15% serum proteins and platelets
  kill of HSV-1: > 99.86%
[3]; 2.5 μM, not irradiated
  PFU/ml: 1.3 × 10^6 PFU/ml
[3]; 10 μM, not irradiated
  PFU/ml: 1.2 × 10^6 PFU/ml
[3]; .156 μM, not irradiated
  PFU/ml: 1.1 × 10^6 PFU/ml
[3]; .625 μM, not irradiated
  PFU/ml: 1.0 × 10^6 PFU/ml
[3]; Human alphaherpesvirus 1, light or radiation study, 2.5 μM, not irradiated, read-out: Log10 Reduction
  log reduction at 2.5 µM: 0
[3]; Human alphaherpesvirus 1, light or radiation study, 10 μM, not irradiated, read-out: Log10 Reduction
  log reduction at 10 µM: 0.0348
[3]; Human alphaherpesvirus 1, light or radiation study, .156 μM, not irradiated, read-out: Log10 Reduction
  log reduction at 0.156 µM: 0.0725
[3]; Human alphaherpesvirus 1, light or radiation study, .625 μM, not irradiated, read-out: Log10 Reduction
  log reduction at 0.625 µM: 0.114
[3]; Human alphaherpesvirus 1, light or radiation study, Test #1, 2.5 μM, 20 J/cm2, 420 nm, read-out: Log10 Reduction
  log reduction at 2.5 µM: 6
[3]; Human alphaherpesvirus 1, light or radiation study, Test #1, 10 μM, 20 J/cm2, 420 nm, read-out: Log10 Reduction
  log reduction at 10 µM: 6
[3]; Human alphaherpesvirus 1, light or radiation study, Test #1, .156 μM, 20 J/cm2, 420 nm, read-out: Log10 Reduction
  log reduction at 0.156 µM: 6
[3]; Human alphaherpesvirus 1, light or radiation study, Test #1, .625 μM, 20 J/cm2, 420 nm, read-out: Log10 Reduction
  log reduction at 0.625 µM: 6
[3]; Human alphaherpesvirus 1, light or radiation study, Test #2, .0099 μM, 20 J/cm2, 420 nm, read-out: Log10 Reduction
  log reduction at 0.0099 µM: 3.27
[3]; Human alphaherpesvirus 1, light or radiation study, Test #2, .0195 μM, 20 J/cm2, 420 nm, read-out: Log10 Reduction
  log reduction at 0.0195 µM: 4.24
[3]; Human alphaherpesvirus 1, light or radiation study, Test #2, .039 μM, 20 J/cm2, 420 nm, read-out: Log10 Reduction
  log reduction at 0.039 µM: 4.87
[3]; Human alphaherpesvirus 1, light or radiation study, Test #2, .078 μM, 20 J/cm2, 420 nm, read-out: Log10 Reduction
  log reduction at 0.078 µM: 5.87
[3]; Human alphaherpesvirus 1, light or radiation study, Test #2, .156 μM, 20 J/cm2, 420 nm, read-out: Log10 Reduction
  log reduction at 0.156 µM: 5.87
[3]; Test #1, 2.5 μM, 20 J/cm2, 420 nm
  PFU/ml: 0 PFU/ml
[3]; Test #1, 10 μM, 20 J/cm2, 420 nm
  PFU/ml: 0 PFU/ml
[3]; Test #1, .156 μM, 20 J/cm2, 420 nm
  PFU/ml: 0 PFU/ml
[3]; Test #1, .625 μM, 20 J/cm2, 420 nm
  PFU/ml: 0 PFU/ml
[3]; Test #2, .0099 μM, 20 J/cm2, 420 nm
  PFU/ml: 4.0 × 10^2 PFU/ml
[3]; Test #2, .0195 μM, 20 J/cm2, 420 nm
  PFU/ml: 4.3 × 10^1 PFU/ml
[3]; Test #2, .039 μM, 20 J/cm2, 420 nm
  PFU/ml: 9.9 × 10^0 PFU/ml
[3]; Test #2, .078 μM, 20 J/cm2, 420 nm
  PFU/ml: 0 PFU/ml
[3]; Test #2, .156 μM, 20 J/cm2, 420 nm
  PFU/ml: 0 PFU/ml
[3]; as low as 0.0195 mM, 420 nm, 2.5% or less of serum proteins
  kill of HSV-1: > 99.99%
[4]; 1.25 μM, 0 J/cm^2
  Optical Density (MTT, MT-4 cells): 0.541
[4]; 1.25 μM, 20 J/cm^2
  Optical Density (MTT, MT-4 cells): 1.242
[4]; 2.5 μM, 0 J/cm^2
  Optical Density (MTT, MT-4 cells): 0.290
[4]; 2.5 μM, 20 J/cm^2
  Optical Density (MTT, MT-4 cells): 1.309
[4]; 5 μM, 0 J/cm^2
  Optical Density (MTT, MT-4 cells): 0.559
[4]; 5 μM, 20 J/cm^2
  Optical Density (MTT, MT-4 cells): 1.337
[4]; 1.25 mM or greater (so in the source), light treated
  inactivation of HIV: essentially complete inactivation of HIV
